In US9540299B2, “MTOR-independent activator of TFEB for autophagy enhancement and uses thereof” (Hong Kong Baptist University, priority 2015, dated 2017):

Test system: MTOR pathway
Experiment: Effects on MTOR pathway: phosphorylation by western blot in N2a cells
Type: cell-based, mouse
Conditions: for phosphorylation of RPS6KB1/p70S6K and MTOR: 12 hours; for phosphorylation of RPS6KB1/p70S6K, MTOR and AKT: 12 h, curcumin 10 μM, analogs 1 μM
Description: N2a cells were treated with curcumin (Cur, 10 μM), A2, B3 and C1 (1 μM) for 12 h. Torin 1 (1 μM) treatment for 2 h was used as a positive control. […] FIG. 3B is a bar chart showing the expression of phosphorylated (p−) and total RPS6KB1/P70S6K, MTOR and AKT. Data are presented as the mean±SD from three independent experiments. *p<0.05 vs. the control (0.1% DMSO).
N2a cells are treated with E2, E3 and E4 (1 μM) for 12 hours. Torin 1 (1 μM) treatment for 2 hours is used as a positive control. The expression of phosphorylated (p−) and total RPS6KB1/P70S6K and MTOR are shown in Western blotting (FIG. 15A). The phosphorylation of RPS6KB1 and MTOR levels are also quantified (FIG. 15B). Data are presented as the mean±SD from three independent experiments. *p<0.05 vs. the control (0.1% DMSO).
N2a cells are treated with different concentrations of E4 (0-1 μM) and Torin 1 (1 μM) for 6 hours. The expression of phosphorylated (p−) and MTOR are detected by Western blotting (FIG. 23A). The phosphorylation of MTOR levels are also quantified (FIG. 23B). Data are presented as the mean±SD from three independent experiments. *p<0.05 vs. the control (0.1% DMSO).
N2a cells are treated with E4 (1 μM) for indicated times and Torin 1 (1 μM) for 6 hours. The expression of phosphorylated (p−) and total RPS6KB1/P70S6K and MTOR are detected by Western blotting (FIG. 24A). The phosphorylation of RPS6KB1 and MTOR levels are also quantified (FIG. 24B). Data are presented as the mean±SD from three independent experiments. *p<0.05 vs. the control (0.1% DMSO).
N2a, Hela and Hela cells stably expressing 3×-Flag-TFEB are cultured in DMEM supplemented with 10% FBS. SH-SY5Y cells are cultured in DMEM/F12 supplemented with 10% FBS. For drug treatment, the full medium is replaced by fresh Opti-MEM I and then the compounds (in 0.1% DMSO) are added to the cells and incubated for 12 h. Inducible PC12 cells overexpressing SNCA (WT and A53T) (a kind gift from Prof. David C. Rubinsztein at Cambridge University) are grown in DMEM supplemented with 10% horse serum, 5% FBS, 50 μg/ml G418, and 150 μg/ml hygromycin B at 37° C., 10% CO2. Cells are treated with 2 μg/ml doxycycline (Dox) for 24 h to induce SNCA expression. The full medium is changed to Opti-MEM I containing the testing compounds for another 48 h.
Cells are lysed on ice in 1× Lysis Buffer (9803, Life Technologies) with complete protease inhibitor mixture (04693124001, Roche Applied Science). Animal tissues are homogenized in nine volumes of ice-cold PBS supplemented with protease inhibitors. Cytosolic and nuclear fractions are isolated using protocols similar to those described previously. Anti-Flag or TFEB antibody is added to the whole cell lysates and Dynabeads® Protein G (10003D, Life Technologies) is used for immunoprecipitation. Proteins are separated by 10-15% SDS-PAGE, transferred, and blotted with the antibodies described. The blots are then incubated with secondary antibodies or the Clean-Blot IP Detection Reagent (21230, Thermo Scientific) at room temperature for 1 h. The protein signals are detected by ECL kit (32106, Pierce) and quantified using ImageJ software.
N2a and HeLa cells are cultured in DMEM supplemented with 10% FBS. HeLa cells stably expressing 3×-Flag-TFEB are maintained in DMEM supplemented with 10% FBS and 500 μg/mL G418. For drug treatment, the full medium is replaced by fresh Opti-MEM I containing the compounds (in 0.1% DMSO) and incubated for the indicated time periods.
Cells are lysed on ice in 1× Lysis Buffer (9803, Life Technologies) with complete protease inhibitor mixture (04693124001, Roche Applied Science) and phosphatase inhibitor (B15001, Biotool). Cytosolic and nuclear fractions are isolated using protocols similar to those described previously. Proteins are separated by 10-15% SDS-PAGE, transferred, and blotted with the antibodies described. The blots are then incubated with primary and secondary antibodies. […]

| Compound | phosphorylation of RPS6KB1/p70S6K and MTOR (1 μM) | phosphorylation of RPS6KB1/p70S6K, MTOR and AKT | further results |
| --- | --- | --- | --- |
| O=C(/C=C/c1ccccc1Cl)/C=C/c1ccccc1Cl [E2] | significantly inhibit | – | – |
| O=C(/C=C/c1ccccc1I)/C=C/c1ccccc1I [E4] | significantly inhibit | – | phosphorylation of MTOR, dose-dependent (0-1 μM, 6 hours, dose-dependent manner): significantly inhibits; phosphorylation of both MTOR and p70S6K, time-dependent (1 μM, 0-6 hours, time-dependent manner): inhibits |
| O=C(/C=C/c1cccc(C(F)(F)F)c1)/C=C/c1cccc(C(F)(F)F)c1 [A2, 1,5-bis(3-(trifluoromethyl)phenyl)penta-1,4-dien-3-one] | – | inhibit | – |
| COc1cc(/C=C/C(=O)CC(=O)/C=C/c2ccc(O)c(OC)c2)ccc1O [curcumin, Curcumin, reference compound] | – | inhibit | – |
| O=C(/C=C/c1ccc(O)cc1)/C=C/c1ccc(O)cc1 [B3, 1,5-bis(4-hydroxyphenyl)penta-1,4-dien-3-one] | – | inhibit | – |
| COc1ccccc1/C=C/C(=O)/C=C/c1ccccc1OC [C1, 1,5-bis(2-methoxyphenyl)penta-1,4-dien-3-one] | – | significantly promotes | – |
| O=C(/C=C/c1ccccc1Br)/C=C/c1ccccc1Br [E3] | significantly inhibit | – | – |
